Consider eleven compounds from patent US9499495B2, “Quinazolines and azaquinazolines as dual inhibitors of RAS/RAF/MEK/ERK and PI3K/AKT/PTEN/mTOR pathways” (Asana Biosciences, LLC, priority 2013, dated 2016).

For one assay, the target named is T1, B-RAFV600E (Homo sapiens, UniProt P15056, V600E).
T1 construct: purchased Millipore, USA 14-557
The experiment in a line: B-RAFV600E radiometric assay. The format is biochemical. The note with it: read-out: Kinase assay B-Raf. The procedure, abridged: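 B-RAFV600E was preincubated 45 min at rt with compound in 1% DMSO. MEK-K97M (0.5 μg), 5 μM final cold ATP and [γ-32P]ATP were then added for 2 h at rt. Phosphorylated MEK was captured on P81 paper and scintillation-counted; IC50 came from a sigmoidal dose-response fit.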

The test system of a further assay is A375 cells. The experiment in a line: XTT assay for cell viability, A375 cells. The note with it: Homo sapiens, A-375, 72 h. The format is cell-based. The procedure, abridged:
(§1)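 RKO and A375 cells seeded at 1000-2000/well overnight, then exposed to compound for 72 h at 37° C., 5% CO2. XTT (1 mg/ml)/PMS (25 μM) added for 2-3 h; absorbance at 450 nm. Growth relative to DMSO control (100%); GI50 from sigmoidal dose-response fit.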

In another assay the test system is pERK in RKO cells. Briefly: In Cell Western (ICW) assay, pERK in RKO cells. The format is cell-based. Particulars: Homo sapiens, 3 h treatment. The essentials: (§2)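 RKO or A375 cells were exposed to compounds for 3 h at 37 °C, then fixed and stained in-cell with antibodies to pERK1/2 (T202/Y204), pS6RP or pAKT T308, followed by a Eu-labelled secondary. Time-resolved fluorescence (340/615 nm) was normalized to Hoechst, and IC50 values were fitted sigmoidally against DMSO as 0% inhibition.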

In the next assay the test system is pS6RP in RKO cells. The experiment in a line: In Cell Western (ICW) assay, pS6RP in RKO cells. The format is cell-based. The note with it: Homo sapiens, 3 h treatment. The essentials:
as §2

In a further assay the test system is pAKT (T308) in RKO cells. Briefly: In Cell Western (ICW) assay, pAKT-T308 in RKO cells. The format is cell-based. The note with it: Homo sapiens, 3 h treatment. The protocol: Cell lines A375, A2058 and RKO obtained from the ATCC as provided above, were grown, and after attaining ˜80% confluency were trypsinized, centrifuged and resuspended in fresh media. The cells were seeded at the specified density (20,000 to 50,000) in a 96-well format black-well clear bottom plate (Corning) and incubated overnight at 37° C. in a 5% CO2 incubator. The next day, compound dilutions of test compounds were prepared in 100% DMSO followed by dilutions in respective media. Treatment of test compounds was performed for 3 h at 37° C. in 5% CO2 incubator. Following 3 h drug treatment, the conditional media was discarded and the cells were washed once with cPBS (PBS containing 0.1% magnesium chloride hexahydrate and 0.1% anhydrous calcium chloride) and fixed with 4% paraformaldehyde in cPBS for 1 h at rt. After fixing, the cells were given three washes using cPBST (cPBS containing 0.1% Triton™ X-100 reagent) and then blocked using blocking solution (5% skimmed milk powder or 5% BSA prepared in cPBST) for 2 h at rt with shaking at 300 rpm. The cells were again washed thrice with cPBST and incubated with primary antibody phospho-p44/42 MAPK(Erk1/2)(Thr202/204) antibody (Cell Signaling, Catalog # 9101L), phospho S6 ribosomal protein (Cell Signaling, Catalog #4858L), phospho AKT (Thr 308) (Cell Signaling, Catalog #9275) or phospho AKT (Ser 473) (Cell Signaling, Catalog #4060L) in specified dilutions (1:500-1:2500), prepared in respective blocking solutions, in a racker overnight at 4° C. The next day, the cells were washed with 1× Delfia® wash buffer (4×1 wash) and incubated with secondary antibody (Delfia®-Eu-N1 labeled anti-rabbit antibody; PerkinElmer, Catalog #AD0105; dilutions: 1:2000 to 1:6000 in Delfia® assay buffer (PerkinElmer, Catalog #1244-111)) for 2 h at rt in the dark at 300 rpm. The cells were then given four washes with 1× Delfia® wash buffer and incubated with Wallac Delfia® Enhancement solution (100 μL; PerkinElmer, Catalog #1244-105) for 20 min at rt in the dark at 300 rpm. The fluorescence emission was then read at 615 nm with an excitation wavelength of 340 nm using a Victor V5 Fluorometer (Perkin Elmer, US). The cells were then washed once with 1×cPBS and incubated with 100 μL of 0.5 mg/mL of Hoechst 33258 dye prepared in cPBS and read at 460 nm with 355 nm excitation, thereby evaluating the correction factor.
The % inhibition for the test compounds of formula (I) (new chemical entities (NCEs)) was calculated keeping DMSO control as 0% and the IC50 values were determined using sigmoidal dose response curve fit in GraphPad Prism® v5 software.

For the next assay, the system named is RKO cells. The experiment in a line: XTT assay for cell viability, RKO cells. It counts as cell-based. The note with it: Homo sapiens, 72 h. The essentials: as §1

T1 sequence (P15056 416-766 V600E limits assumed): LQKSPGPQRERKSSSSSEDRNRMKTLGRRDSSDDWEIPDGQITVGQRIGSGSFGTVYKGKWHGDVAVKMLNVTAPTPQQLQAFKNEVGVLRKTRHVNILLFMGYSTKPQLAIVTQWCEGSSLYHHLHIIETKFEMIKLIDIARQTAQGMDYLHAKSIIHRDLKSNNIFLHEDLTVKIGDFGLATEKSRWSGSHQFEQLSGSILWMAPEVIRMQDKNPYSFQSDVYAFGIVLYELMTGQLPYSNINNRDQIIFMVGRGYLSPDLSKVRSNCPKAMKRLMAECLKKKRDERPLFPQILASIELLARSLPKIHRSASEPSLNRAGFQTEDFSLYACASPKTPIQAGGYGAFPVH

As to `Nc1ccc(-c2nc(N3CCOCC3)c3nc(-c4cccc(NS(=O)(=O)CCCF)c4F)ccc3n2)cn1` [Example 88, N-(3-(2-(6-aminopyridin-3-yl)-4-morpholinopyrido[3,2-d]pyrimidin-6-yl)-2-fluorophenyl)-3-fluoropropane-1-sulfonamide], the IC50 on B-RAFV600E was in the range of 1 to 100 nM; in the assay with A375 cells, 100 to 1000 nM; in the assay with pERK in RKO cells, 100 to 1000 nM; with pS6RP in RKO cells, 100 to 1000 nM; in the assay on pAKT (T308) in RKO cells, 100 to 1000 nM; with RKO cells, 100 to 1000 nM.

For `COc1cc(-c2c(F)ccc(NS(=O)(=O)CCCF)c2F)cc2c(N3CCOCC3)nc(-c3ccc(N)nc3)nc12` [Example 79, N-(3-(2-(6-aminopyridin-3-yl)-8-methoxy-4-morpholinoquinazolin-6-yl)-2,4-difluorophenyl)-3-fluoropropane-1-sulfonamide], the IC50 was in the range of 1 to 100 nM on B-RAFV600E; 1 to 100 nM in the assay with A375 cells; 100 to 1000 nM in the assay with pS6RP in RKO cells; 100 to 1000 nM in the assay with pAKT (T308) in RKO cells; 100 to 1000 nM in the assay on RKO cells.

Turning to `Cc1cc(N)ncc1-c1nc(N2CCOCC2)c2nc(-c3cccc(NS(=O)(=O)CCCF)c3F)ccc2n1` [Example 101, N-(3-(2-(6-amino-4-methylpyrtdin-3-yl)-4-morpholinopyrldo[3,2-d]pyrimidin-6-yl)-2-fluorophenyl)-3-fluoropropane-1-sulfonamide], the IC50 at B-RAFV600E lay in the range of 1 to 100 nM; with A375 cells, 100 to 1000 nM; in the assay on pERK in RKO cells, 100 to 1000 nM; with pS6RP in RKO cells, 1 to 100 nM; in the assay on pAKT (T308) in RKO cells, 100 to 1000 nM; in the assay on RKO cells, 100 to 1000 nM.

Consider `Nc1cc(C(F)(F)F)c(-c2nc(N3CCOCC3)c3nc(-c4cccc(NS(=O)(=O)CCCF)c4F)ccc3n2)cn1` [Example 94, N-(3-(2-(6-amino-4-(trifluoromethyl)pyridin-3-yl)-4-morpholinopyrido[3,2-d]pyrimidin-6-yl)-2-fluorophenyl)-3-fluoropropane-1-sulfonamide], for which the IC50 on B-RAFV600E lay within 1 to 100 nM; with A375 cells, 100 to 1000 nM; with pERK in RKO cells, 1 to 100 nM; in the assay on pS6RP in RKO cells it was 100 to 1000 nM; in the assay with pAKT (T308) in RKO cells, 100 to 1000 nM; in the assay with RKO cells it was 100 to 1000 nM.

Turning to `Nc1cc(F)c(-c2nc(N3CCOCC3)c3nc(-c4cccc(NS(=O)(=O)CCCF)c4F)ccc3n2)cn1` [Example 102, N-(3-(2-(6-amino-4-fluoropyridin-3-yl)-4-morpholinopyrido[3,2-d]pyrimidin-6-yl)-2-fluorophenyl)-3-fluoropropane-1-sulfonamide], the IC50 was 1 to 100 nM at B-RAFV600E; 100 to 1000 nM in the assay on A375 cells; 100 to 1000 nM in the assay with pERK in RKO cells; 100 to 1000 nM in the assay on pS6RP in RKO cells; 100 to 1000 nM in the assay with RKO cells.

As for `Nc1ncc(-c2nc(N3CCOCC3)c3nc(-c4cccc(NS(=O)(=O)c5cc(F)ccc5F)c4F)ccc3n2)cn1` [Example 93, N-(3-(2-(2-aminopyrimidin 5-yl)-4-morpholinopyrido[3,2-d]pyrimidin-6-yl)-2-fluorophenyl)-2,5-difluorobenzenesulfonamide], the IC50 fell in the range of 1 to 100 nM on B-RAFV600E, 100 to 1000 nM with A375 cells, 1000 to 10000 nM with pAKT (T308) in RKO cells and 100 to 1000 nM in the assay on RKO cells.

As to `COc1cc(-c2cccc(NS(=O)(=O)CCCF)c2F)cc2c(N3CCOC[C@H]3C)nc(-c3cnc(N)c(F)c3)nc12` [Example 134, (R)-N-(3-(2-(6-amino-5-fluoropyridin-3-yl)-8-methoxy-4-(3-methylmorpholino)quinazolin-6-yl)-2-fluorophenyl)-3-fluoropropane-1-sulfonamide], the IC50 fell in the range of 1 to 100 nM on B-RAFV600E; 1 to 100 nM with A375 cells; 1 to 100 nM with pERK in RKO cells; 1 to 100 nM in the assay on pS6RP in RKO cells; 100 to 1000 nM in the assay with RKO cells.

For `C[C@H]1COCCN1c1nc(-c2cnc(N)cc2C(F)(F)F)nc2ccc(-c3cccc(NS(=O)(=O)CCCF)c3F)nc12` [Example 108, (S)-N-(3-(2-(6-amino-4-(trifluoromethyl)pyrldin-3-yl)-4-(3-methylmorpholino)pyrido[3,2-d]pyrimidin-6-yl)-2-fluorophenyl)-3-fluoropropane-1-sulfonamide], the IC50 was in the range of 1 to 100 nM at B-RAFV600E; 100 to 1000 nM in the assay with A375 cells; 100 to 1000 nM in the assay with pERK in RKO cells; 1000 to 10000 nM in the assay on pAKT (T308) in RKO cells; 100 to 1000 nM in the assay on RKO cells.

Take `Nc1ccc(-c2nc(N3CCOCC3)c3nc(-c4cccc(NS(=O)(=O)c5cc(F)ccc5F)c4F)ccc3n2)cn1` [Example 92, N-(3-(2-(6-aminopyridin-3-yl)-4-morpholinopyrido[3,2-d]pyrimidin-6-yl)-2-fluorophenyl)-2,5-difluorobenzenesulfonamide]: the IC50 is 1 to 100 nM at B-RAFV600E; 1 to 100 nM in the assay on A375 cells; 100 to 1000 nM in the assay with pERK in RKO cells; 1000 to 10000 nM in the assay with pAKT (T308) in RKO cells; 1000 to 10000 nM with RKO cells.

`CNc1ccc(-c2nc(N3CCOCC3)c3nc(-c4cccc(NS(=O)(=O)CCCF)c4F)ccc3n2)cn1` [Example 113, 3-fluoro-N-(2-fluoro-3-(2-(6-(methylamino)pyridin-3-yl)-4-morpholinopyrido[3,2-d]pyrimidin-6-yl)phenyl)propane-1-sulfonamide]: the IC50 on B-RAFV600E is 1 to 100 nM; with A375 cells it was 100 to 1000 nM; in the assay with pAKT (T308) in RKO cells, 1000 to 10000 nM; in the assay with RKO cells, 100 to 1000 nM.

With `Nc1ncc(-c2nc(N3CCOCC3)c3nc(-c4cccc(NS(=O)(=O)CCCF)c4F)ccc3n2)cn1` [Example 87, N-(3-(2-(2-aminopyrimidin-5-yl)-4-morpholinopyrido[3,2-d]pyrimidin-6-yl)-2-fluorophenyl)-3-fluoropropane-1-sulfonamide], the IC50 at B-RAFV600E lay in the range of 1 to 100 nM; in the assay on A375 cells it was 100 to 1000 nM; in the assay with pS6RP in RKO cells it was 100 to 1000 nM; in the assay with pAKT (T308) in RKO cells it was 100 to 1000 nM; in the assay with RKO cells it was 100 to 1000 nM.
